Here are results for three molecules from patent publication US7282512B2, “Cycloalkyl ketoamides derivatives useful as cathepsin K inhibitors” (SmithKline Beecham Corporation, priority 2002, dated 2007).

What all share (type): biochemical
For experiment [1], the target named is human cathepsin H (Homo sapiens, UniProt P09668). In words: cathepsin H inhibition assay, substrate L-Arg-β-naphthalamide. The conditions noted are these: Table 2; enzyme from human liver tissue, 50 μM substrate; read-out: hCat H Ki. On the procedure:
(§1) All assays for cathepsin K were carried out with human and rat recombinant enzyme. Assays for cathepsins S & V were also carried out with human recombinant enzyme. Assays for human cathepsins B, H, and L were carried out with enzyme, purchased from Athens Research and Technology, Inc., prepared from human liver tissue. Standard assay conditions for the determination of kinetic constants used a fluorogenic peptide substrate, typically (5S,8S)-13-amino-5-benzyl-13-imino-3-methylene-N-(4-methyl-2-oxo-2H-chromen-7-yl)-6-oxo-1-phenyl-2-oxa-4,7,12-triazatridecane-8-carboxamide (Cbz-Phe-Arg-AMC), and were determined in 100 mM sodium acetate at pH 5.5 containing 10 mM dithiothreitol and 120 mM sodium chloride. A stock substrate solution of Cbz-Phe-Arg-AMC was prepared at a concentration of 50 mM in dimethyl sulfoxide. This substrate was diluted into the assay for a final substrate concentration of 10 μM in the rat cathepsin K, human cathepsin K, and human cathepsin B assays; a final substrate concentration of 5 μM in the human cathepsin L assay; and a final substrate concentration of 2 μM in the human cathepsin V assay. […]
(§2) All assays contained 10% dimethyl sulfoxide. […] Product fluorescence (excitation at 360 nm; emission at 440 nm, (except cathepsin H which used excitation at 340 nm; emission at 420 nm)) was monitored with a PerSeptive Biosystems Cytofluor II fluorescence plate reader. […]
(§3) Potential inhibitors were evaluated using the progress curve method. […] For those compounds whose progress curves were linear, the enzymatic activity (RATE) was plotted against the concentration of test compound, including inhibitor concentration of zero ([I]=0), and the IC50 determined from a fit of equation 1 to the data, RATE=Vmax/(1+([I]/IC50)) (1) where Vmax is the best fit estimate of the maximal enzymatic activity. Ki values were calculated from IC50 values using equation 2 assuming a competitive model.

In experiment [2] the target is T1, rat cathepsin K (Rattus norvegicus, UniProt O35186).
T1 construct: The proform of cathepsin K was converted to mature cathepsin K by brief exposure to pH 4; made in house; host or cells: baculovirus; Trichoplusia ni High Five cells (virus raised in Sf-9)
T1 sequence (O35186 115-329): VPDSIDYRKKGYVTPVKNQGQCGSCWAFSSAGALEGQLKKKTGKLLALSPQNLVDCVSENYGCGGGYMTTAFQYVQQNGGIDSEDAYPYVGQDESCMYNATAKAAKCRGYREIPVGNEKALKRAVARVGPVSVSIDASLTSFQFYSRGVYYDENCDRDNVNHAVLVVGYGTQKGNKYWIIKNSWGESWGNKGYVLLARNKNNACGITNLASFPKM
In words: cathepsin K inhibition assay, fluorogenic substrate Cbz-Phe-Arg-AMC, progress curve method. The conditions noted are these: Table 2; rat recombinant enzyme, 10 μM substrate; read-out: rCat K Ki. On the procedure:
(§4) All assays for cathepsin K were carried out with human and rat recombinant enzyme. Assays for cathepsins S & V were also carried out with human recombinant enzyme. Assays for human cathepsins B, H, and L were carried out with enzyme, purchased from Athens Research and Technology, Inc., prepared from human liver tissue. Standard assay conditions for the determination of kinetic constants used a fluorogenic peptide substrate, typically (5S,8S)-13-amino-5-benzyl-13-imino-3-methylene-N-(4-methyl-2-oxo-2H-chromen-7-yl)-6-oxo-1-phenyl-2-oxa-4,7,12-triazatridecane-8-carboxamide (Cbz-Phe-Arg-AMC), and were determined in 100 mM sodium acetate at pH 5.5 containing 10 mM dithiothreitol and 120 mM sodium chloride. A stock substrate solution of Cbz-Phe-Arg-AMC was prepared at a concentration of 50 mM in dimethyl sulfoxide. This substrate was diluted into the assay for a final substrate concentration of 10 μM in the rat cathepsin K, human cathepsin K, and human cathepsin B assays; a final substrate concentration of 5 μM in the human cathepsin L assay; and a final substrate concentration of 2 μM in the human cathepsin V assay.
All assays contained 10% dimethyl sulfoxide. […] All assays were conducted at 30° C. Product fluorescence (excitation at 360 nm; emission at 440 nm, (except cathepsin H which used excitation at 340 nm; emission at 420 nm)) was monitored with a PerSeptive Biosystems Cytofluor II fluorescence plate reader. Product progress curves were generated over 2.3 h monitoring the formation of 7-amino-4-methylcoumarin product (or β-naphthalamide for cathepsin H). […]
Protein Purification: Media (human and rat) were filtered through a Whatman 3 filter, and then loaded onto a 25 mL Poros HS II (26 mm×47 mm) cation exchange column equilibrated in 25 mM sodium acetate at pH 5.5 (equilibration buffer). The column was washed until the absorbance reached the baseline value, and then the protein was eluted with a linear gradient from 0-2 M sodium chloride in the equilibration buffer. Column fractions were analyzed by SDS-PAGE, N-terminal sequencing, and mass spectrometry. […]

For experiment [3], the target named is human cathepsin L (Homo sapiens, UniProt P07711). In words: cathepsin L inhibition assay, fluorogenic substrate Cbz-Phe-Arg-AMC. The conditions noted are these: Table 2; enzyme from human liver tissue, 5 μM substrate; read-out: hCat L Ki. On the procedure: as §4
Chain of human cathepsin L (P07711 114-288 limits assumed): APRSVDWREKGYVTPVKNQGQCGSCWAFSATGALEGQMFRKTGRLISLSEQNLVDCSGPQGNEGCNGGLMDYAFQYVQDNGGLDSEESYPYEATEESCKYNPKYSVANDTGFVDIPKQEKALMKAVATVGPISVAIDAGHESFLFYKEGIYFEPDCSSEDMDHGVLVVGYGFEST
Chain of human cathepsin L (P07711 292-333 limits assumed): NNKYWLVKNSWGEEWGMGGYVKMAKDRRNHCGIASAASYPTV
(§5) All assays contained 10% dimethyl sulfoxide. […] All assays were conducted at 30° C. Product fluorescence (excitation at 360 nm; emission at 440 nm, (except cathepsin H which used excitation at 340 nm; emission at 420 nm)) was monitored with a PerSeptive Biosystems Cytofluor II fluorescence plate reader. Product progress curves were generated over 2.3 h monitoring the formation of 7-amino-4-methylcoumarin product (or β-naphthalamide for cathepsin H).
as §3

The target in experiment [4] is human cathepsin S (Homo sapiens, UniProt P25774). In words: cathepsin S inhibition assay, fluorogenic substrate Cbz-Val-Val-Arg-AMC. The conditions noted are these: Table 2; human recombinant enzyme, 10 μM substrate; read-out: hCat S Ki. On the procedure: as §1, §2, §3
Chain of human cathepsin S (P25774 115-331): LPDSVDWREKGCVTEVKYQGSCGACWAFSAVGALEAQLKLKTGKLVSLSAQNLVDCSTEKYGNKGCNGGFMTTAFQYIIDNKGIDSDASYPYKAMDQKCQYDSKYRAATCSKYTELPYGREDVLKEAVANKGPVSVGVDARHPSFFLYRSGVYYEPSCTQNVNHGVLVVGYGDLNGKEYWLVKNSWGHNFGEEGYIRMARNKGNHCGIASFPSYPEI
The target of experiment [5] is human cathepsin V (Homo sapiens, UniProt O60911). In words: cathepsin V inhibition assay, fluorogenic substrate Cbz-Phe-Arg-AMC. The conditions noted are these: Table 2; human recombinant enzyme, 2 μM substrate; read-out: hCat V Ki. On the procedure: as §4, §5, §3
Chain of human cathepsin V (O60911 114-334): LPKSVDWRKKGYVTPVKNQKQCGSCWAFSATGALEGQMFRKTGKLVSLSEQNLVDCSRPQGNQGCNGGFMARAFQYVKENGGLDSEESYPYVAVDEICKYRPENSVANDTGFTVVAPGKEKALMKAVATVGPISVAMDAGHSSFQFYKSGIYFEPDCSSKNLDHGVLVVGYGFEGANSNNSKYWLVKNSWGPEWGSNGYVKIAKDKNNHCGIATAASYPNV
In experiment [6] the target is human cathepsin B (Homo sapiens, UniProt P07858). In words: cathepsin B inhibition assay, fluorogenic substrate Cbz-Phe-Arg-AMC. The conditions noted are these: Table 2; enzyme from human liver tissue, 10 μM substrate; read-out: hCat B Ki. On the procedure:
as §4, §5, §3

Bounds are passed on as bounds.

Chain of human cathepsin H (P09668 116-335 limits assumed, other chains not shown): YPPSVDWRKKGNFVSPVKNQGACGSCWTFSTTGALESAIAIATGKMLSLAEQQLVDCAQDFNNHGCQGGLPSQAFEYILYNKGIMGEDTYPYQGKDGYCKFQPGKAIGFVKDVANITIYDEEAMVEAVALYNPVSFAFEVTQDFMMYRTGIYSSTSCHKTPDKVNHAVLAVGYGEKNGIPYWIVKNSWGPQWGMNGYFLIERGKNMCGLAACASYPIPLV

Usually Ki stands for a dissociation constant, usually derived from enzyme kinetics or from competition with a known ligand. With `CCCC[C@H](NC(=O)OC1(Cc2ccccc2)CCCC1)C(=O)C(=O)N[C@@H](C)C(=O)OCc1ccccc1` [Example 3, Benzyl (2S)-2-{[(3S)-3-({[(1-benzylcyclopentyl)oxy]carbonyl}amino)-2-oxoheptanoyl]amino}propanoate], the Ki is greater than 1 µM in experiment [1]; greater than 1 µM in experiment [2]; greater than 1 µM in experiment [3]; 0.1 to 1 µM in experiment [4]; greater than 1 µM in experiment [5]; greater than 1 µM in experiment [6].
Turning to `CCCC[C@H](NC(=O)OCC1(Cc2ccc(F)cc2)CCC1)C(=O)C(=O)Nc1n[nH]c2cc(Cl)ccc12` [Example 15, [1-(4-fluorobenzyl)cyclobutyl]methyl(1S)-1-[[(6-chloro-1H-indazol-3-yl)amino](oxo)acetyl]pentylcarbamate], the inhibition constant Ki in experiment [1] lay in the range of 0.1 to 1 µM; in experiment [2], 0.01 to 0.1 µM; in experiment [3], 0.01 to 0.1 µM; in experiment [4], 0.001 to 0.01 µM; in experiment [5], 0.001 to 0.01 µM; in experiment [6] it was 0.1 to 1 µM.
Turning to `CCCC[C@H](NC(=O)OC1(c2nc3ccccc3s2)CCCC1)C(=O)C(=O)Nc1ccn[nH]1` [Example 17, 1-(1,3-Benzothiazol-2-yl)cyclopentyl(1S)-1-[oxo(1H-pyrazol-3-ylamino)acetyl]pentylcarbamate], the Ki in experiment [1] is greater than 1 µM; in experiment [2], 0.01 to 0.1 µM; in experiment [3] it was 0.01 to 0.1 µM; in experiment [4], 0.01 to 0.1 µM; in experiment [5], 0.01 to 0.1 µM; in experiment [6], greater than 1 µM.
